Measured values from US20080280920A1, “Plasminogen Activator Inhibitor-1 Inhibitors” (priority 2005, published 2008).

Assays:
wildtype human PAI-1 = biological target: T1, wildtype human PAI-1 (Homo sapiens, UniProt P05121); test: PAI-1/uPA assay (residual uPA activity, fluorescent substrate SpectroFluor); format: biochemical
T1 construct: purchased Molecular Innovations Lot# HWT-804
Method: Principle: The assay is based on using a fluorescent substrate (SpectroFluor) to measure residual uPA following inhibition of uPA by PAI-1. PAI-1 used in the assay is pre-treated in the presence of increasing concentrations of the lead compounds to screen for any inhibitory effects on PAI-1. Method: This assay was performed in 96 well microtiter plates. The concentrations of uPA (8 nM) and PAI-1 (6 nM) used in this assay were carefully optimized when using the fluorescent substrate, SpectroFluor™. Stock solutions (10 mM) of all lead compounds were prepared fresh in DMSO. […] 20 μl of 6 nM wildtype human PAI-1 (Molecular Innovations, Lot# HWT-804) was incubated for 15-20 minutes at room temperature in 96 well microtiter plates either with buffer, (50 mM HEPES, 150 mM NaCl, 0.05% Tween-20, 1% BSA, pH 6.6) or various concentrations (10 nM to 100 μM final concentration) of lead compounds in a total volume of 80 μl. A 20 μl aliquot of 8 nM uPA (HMW) solution in 0.05M Tris Buffered™ saline (TBS), pH 8.4 was added to each well and the mixture incubated for an additional 5 minutes at RT. The proteolytic reaction was initiated by addition of 50 μl of 0.1 mM SpectroFluor (Spectrozyme UK Fluorogenic substrate) to each well. The kinetics of the free chromophore, 7-amino-4-methylcoumarin (AMC) released in the course of peptide cleavage by the protease, uPA, was monitored for 30 minutes at 37° C. on a spectrofluorometric microplate reader with an excitation wavelength of 360 nm and emission wavelength of 440 nm. Kinetic data regarding the rate of substrate cleavage by uPA was acquired with Softmax PrO™ software. The difference between the residual uPA activity in the presence or absence of untreated PAI-1, at the molar ratio used, was considered as the “total” PAI-1 activity (100%). The inhibition of uPA by PAI-1 treated with lead compounds was expressed as a percentage of the initial activity of untreated PAI-1. Controls were performed during each experiment to ensure the nearly complete inhibition of uPA by untreated PAI-1 and also to ensure the absence of any direct effect of the lead compounds on uPA alone or on SpectroFluor.

HL-60(TB) = test: NCI anticancer screen, HL-60(TB); format: cell-based, human; details: Leukemia, 48 h; for GI50 / CC50: Homo sapiens; for CC50: read-out: LC50 (the source's name)
SR = test: NCI anticancer screen, SR; format: cell-based, human; details: Leukemia, 48 h; for GI50 / CC50: Homo sapiens; for CC50: read-out: LC50 (the source's name)
A549/ATCC = test: NCI anticancer screen, A549/ATCC; format: cell-based, human; details: Non-Small Cell Lung, 48 h; for GI50 / LC50: Homo sapiens
HOP-92 = test: NCI anticancer screen, HOP-92; format: cell-based, human; details: HOP-92, Non-Small Cell Lung, 48 h; for GI50 / LC50 (concentration killing 50% of starting cells): Homo sapiens
COLO 205 = test: NCI anticancer screen, COLO 205; format: cell-based, human; details: COLO 205, Colon, 48 h; for GI50 / CC50: Homo sapiens; for CC50: read-out: LC50 (the source's name)
HCC-2998 = test: NCI anticancer screen, HCC-2998; format: cell-based, human; details: HCC-2998, Colon, 48 h; for GI50 / LC50: Homo sapiens
HCT-15 = test: NCI anticancer screen, HCT-15; format: cell-based, human; details: HCT-15, Colon, 48 h; for GI50 / CC50: Homo sapiens; for CC50: read-out: LC50 (the source's name)
HT29 = test: NCI anticancer screen, HT29; format: cell-based, human; details: HT29, Colon, 48 h; for GI50 / CC50: Homo sapiens, HT-29; for CC50: read-out: LC50 (the source's name)
SF-268 = test: NCI anticancer screen, SF-268; format: cell-based, human; details: SF-268, CNS, 48 h; for GI50 / LC50: Homo sapiens
SF-539 = test: NCI anticancer screen, SF-539; format: cell-based, human; details: SF-539, CNS, 48 h; for GI50 / CC50: Homo sapiens; for CC50: read-out: LC50 (the source's name)
SNB-19 = test: NCI anticancer screen, SNB-19; format: cell-based, human; details: SNB-19, CNS, 48 h; for GI50 / CC50: Homo sapiens; for CC50: read-out: LC50 (the source's name)
LOX IMVI = test: NCI anticancer screen, LOX IMVI; format: cell-based, human; details: Melanoma, 48 h; for GI50 / LC50 (concentration giving 50% net cell kill): Homo sapiens
M14 = test: NCI anticancer screen, M14; format: cell-based, human; details: M14, Melanoma, 48 h; for GI50 / CC50: Homo sapiens; for CC50: read-out: LC50 (the source's name)
SK-MEL-28 = test: NCI anticancer screen, SK-MEL-28; format: cell-based, human; details: SK-MEL-28, Melanoma, 48 h; for GI50 / CC50: Homo sapiens; for CC50: read-out: LC50 (the source's name)
UACC-257 = test: NCI anticancer screen, UACC-257; format: cell-based, human; details: UACC-257, Melanoma, 48 h
UACC-62 = test: NCI anticancer screen, UACC-62; format: cell-based, human; details: UACC-62, Melanoma, 48 h; for GI50 / CC50: Homo sapiens; for CC50: read-out: LC50 (the source's name)
OVCAR-4 = test: NCI anticancer screen, OVCAR-4; format: cell-based, human; details: OVCAR-4, Ovarian, 48 h; for GI50 / CC50: Homo sapiens; for CC50: read-out: LC50 (the source's name)
SK-OV-3 = test: NCI anticancer screen, SK-OV-3; format: cell-based, human; details: SK-OV-3, Ovarian, 48 h; for GI50 / CC50: Homo sapiens; for CC50: read-out: LC50 (the source's name)
786-0 = test: NCI anticancer screen, 786-0; format: cell-based, human; details: 786-0, Renal, 48 h; for GI50 / CC50: Homo sapiens; for CC50: read-out: LC50 (the source's name)
ACHN = test: NCI anticancer screen, ACHN; format: cell-based, human; details: Renal, 48 h; for GI50 / CC50: Homo sapiens; for CC50: read-out: LC50 (the source's name)
RXF 393 = test: NCI anticancer screen, RXF 393; format: cell-based, human; details: RXF 393, Renal, 48 h; for GI50 / CC50: Homo sapiens; for CC50: read-out: LC50 (the source's name)
BT-549 = test: NCI anticancer screen, BT-549; format: cell-based, human; details: BT-549, Breast, 48 h; for GI50 / CC50: Homo sapiens; for CC50: read-out: LC50 (the source's name)

T1 sequence (P05121 24-402): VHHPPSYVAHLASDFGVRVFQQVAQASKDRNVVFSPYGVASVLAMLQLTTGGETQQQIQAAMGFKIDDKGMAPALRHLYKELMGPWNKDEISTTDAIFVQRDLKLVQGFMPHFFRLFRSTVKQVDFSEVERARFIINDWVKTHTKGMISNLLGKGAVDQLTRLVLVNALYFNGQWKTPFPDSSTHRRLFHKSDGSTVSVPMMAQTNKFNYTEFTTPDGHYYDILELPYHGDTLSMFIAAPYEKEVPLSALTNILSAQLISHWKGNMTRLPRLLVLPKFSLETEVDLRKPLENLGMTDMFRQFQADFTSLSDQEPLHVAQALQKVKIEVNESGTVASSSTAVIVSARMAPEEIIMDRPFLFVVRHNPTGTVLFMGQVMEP

COc1cc(CNCC2CCN(C(=O)OC(C)(C)C)CC2)cc(CN2CCN(c3ccccn3)CC2)c1O [Compound Q012132, 2-Methoxy-4-({[(N-t-butyloxycarbonylpiperidin-4-yl)methyl]amino}methyl)-6-[(4-pyridin-2-ylpiperazin-1-yl)methyl]phenol]
Conc. of compound required for PAI-1 inhibition (result in words) (wildtype human PAI-1; within the concentration range tested): No inhibition
GI50 (HL-60(TB)): 14.8 µM
CC50 (HL-60(TB)): 72.6 µM
TGI (HL-60(TB)): 32.8 µM
GI50 (SR): 11 µM
CC50 (SR): 84.4 µM
TGI (SR): 30.5 µM
GI50 (A549/ATCC): 31.2 µM
LC50 (A549/ATCC): > 100 µM
TGI (A549/ATCC): >100 µM
TGI (HOP-92): 26.6 µM
GI50 (HOP-92): 10.7 µM
LC50 (concentration killing 50% of starting cells) (HOP-92): 66.3 µM
TGI (COLO 205): 34.8 µM
GI50 (COLO 205): 16.8 µM
CC50 (COLO 205): 72.1 µM
TGI (HCC-2998): 28.9 µM
GI50 (HCC-2998): 14.5 µM
LC50 (HCC-2998): 57.7 µM
TGI (HCT-15): 36.9 µM
GI50 (HCT-15): 16.8 µM
CC50 (HCT-15): 80.8 µM
TGI (HT29): 16.7 µM
GI50 (HT29): 3.11 µM
CC50 (HT29): 63 µM
GI50 (SF-268): 18.5 µM
LC50 (SF-268): > 100 µM
TGI (SF-268): 44.1 µM
GI50 (SF-539): 14.6 µM
CC50 (SF-539): 54.6 µM
TGI (SF-539): 28.2 µM
GI50 (SNB-19): 41.8 µM
CC50 (SNB-19): > 100 µM
TGI (SNB-19): >100 µM
GI50 (LOX IMVI): 14.1 µM
LC50 (concentration giving 50% net cell kill) (LOX IMVI): 55.1 µM
TGI (LOX IMVI): 27.9 µM
GI50 (M14): 5.8 µM
CC50 (M14): 41.9 µM
TGI (M14): 17.5 µM
GI50 (SK-MEL-28): 16.8 µM
CC50 (SK-MEL-28): 75.5 µM
TGI (SK-MEL-28): 35.6 µM
GI50 (UACC-257; Homo sapiens): 18.4 µM
CC50 (UACC-257; Homo sapiens, read-out: LC50 (the source's name)): > 100 µM
TGI (UACC-257): 45.7 µM
GI50 (UACC-62): 17.2 µM
CC50 (UACC-62): 64.3 µM
TGI (UACC-62): 33.3 µM
GI50 (OVCAR-4): 47.8 µM
CC50 (OVCAR-4): > 100 µM
TGI (OVCAR-4): >100 µM
GI50 (SK-OV-3): 29.4 µM
CC50 (SK-OV-3): > 100 µM
TGI (SK-OV-3): 98.8 µM
TGI (786-0): 28.2 µM
GI50 (786-0): 14.9 µM
CC50 (786-0): 53.1 µM
GI50 (ACHN): 21 µM
CC50 (ACHN): > 100 µM
TGI (ACHN): 48.5 µM
GI50 (RXF 393): 13.6 µM
CC50 (RXF 393): 67.2 µM
TGI (RXF 393): 30.2 µM
TGI (BT-549): 28.9 µM
GI50 (BT-549): 14.6 µM
CC50 (BT-549): 57.1 µM

CCOC(=O)c1ccc(CNCc2cc(CN3CCN(c4ccccn4)CC3)c(O)c(OC)c2)cc1 [Compound Q012135T]
Percent PAI-1 inhibition (wildtype human PAI-1; at the concentration given, percent of activity of untreated PAI-1): 8
Conc. of compound required for PAI-1 inhibition (wildtype human PAI-1; concentration giving the percent inhibition, 6 nM PAI-1, 8 nM uPA): 100 µM
GI50 (HL-60(TB)): 13.1 µM
CC50 (HL-60(TB)): 13.1 µM
TGI (HL-60(TB)): 33.7 µM
GI50 (SR): 4.18 µM
CC50 (SR): 4.18 µM
TGI (SR): 20.6 µM
GI50 (A549/ATCC): 36.9 µM
LC50 (A549/ATCC): > 100 µM
TGI (A549/ATCC): >100 µM
TGI (HOP-92): 31.8 µM
GI50 (HOP-92): 12.8 µM
LC50 (concentration killing 50% of starting cells) (HOP-92): 79.1 µM
TGI (COLO 205): 36.3 µM
GI50 (COLO 205): 17 µM
CC50 (COLO 205): 77.6 µM
TGI (HCC-2998): 31.6 µM
GI50 (HCC-2998): 15.3 µM
LC50 (HCC-2998): 65.1 µM
TGI (HCT-15): >100 µM
GI50 (HCT-15): 26.9 µM
CC50 (HCT-15): > 100 µM
TGI (HT29): 31.8 µM
GI50 (HT29): 17.1 µM
CC50 (HT29): 59 µM
GI50 (SF-268): 19.1 µM
LC50 (SF-268): 71.1 µM
TGI (SF-268): 36.9 µM
GI50 (SF-539): 16 µM
CC50 (SF-539): 57.2 µM
TGI (SF-539): 30.2 µM
GI50 (SNB-19): 33.1 µM
CC50 (SNB-19): > 100 µM
TGI (SNB-19): >100 µM
GI50 (LOX IMVI): 15.8 µM
LC50 (concentration giving 50% net cell kill) (LOX IMVI): 63.4 µM
TGI (LOX IMVI): 31.7 µM
GI50 (M14): 17.2 µM
CC50 (M14): 64.8 µM
TGI (M14): 33.4 µM
GI50 (SK-MEL-28): 15.1 µM
CC50 (SK-MEL-28): 57.4 µM
TGI (SK-MEL-28): 29.5 µM
GI50 (UACC-62): 20.1 µM
CC50 (UACC-62): 72.4 µM
TGI (UACC-62): 38.2 µM
GI50 (OVCAR-4): 18.6 µM
CC50 (OVCAR-4): 98 µM
TGI (OVCAR-4): 42.7 µM
GI50 (SK-OV-3): 24.9 µM
CC50 (SK-OV-3): > 100 µM
TGI (SK-OV-3): 56.7 µM
TGI (786-0): 31.0 µM
GI50 (786-0): 16.2 µM
CC50 (786-0): 59.2 µM
GI50 (ACHN): 29.9 µM
CC50 (ACHN): > 100 µM
TGI (ACHN): >100 µM
GI50 (RXF 393): 18.8 µM
CC50 (RXF 393): 84.5 µM
TGI (RXF 393): 39.9 µM
TGI (BT-549): 30.0 µM
GI50 (BT-549): 15.5 µM
CC50 (BT-549): 58 µM
